Data: ChEMBL document CHEMBL3045669, “Evaluation of crude toxin and metabolite produced by Helminthosporium gramineum Rabenh for the control of rice sheath blight in paddy fields” (2007)

Assays:
Type in all cases: functional
Conditions in all cases: read-out: GI
[1] = test system: Rhizoctonia solani; assay: Growth inhibition of Rhizoctonia solani AG-1 IA at 25 ug/ml after 24 hr
[2] = test system: Rhizoctonia solani; assay: Growth inhibition of Rhizoctonia solani AG-1 IA at 200 ug/ml after 24 hr
[3] = test system: Rhizoctonia solani; assay: Growth inhibition of Rhizoctonia solani AG-1 IA at 100 ug/ml after 24 hr
[4] = test system: Rhizoctonia solani; assay: Growth inhibition of Rhizoctonia solani AG-1 IA at 10 ug/ml after 24 hr
[5] = test system: Rhizoctonia solani; assay: Growth inhibition of Rhizoctonia solani AG-1 IA at 50 ug/ml after 24 hr
[6] = test system: Rhizoctonia solani; assay: Growth inhibition of Rhizoctonia solani AG-1 IA at 1 ug/ml after 24 hr

| Compound | inhibition of growth at 25 µg/mL [1] [%] | inhibition of growth at 200 µg/mL [2] [%] | inhibition of growth at 100 µg/mL [3] [%] | inhibition of growth at 10 µg/mL [4] [%] | inhibition of growth at 50 µg/mL [5] [%] | inhibition of growth at 1 µg/mL [6] [%] |
| --- | --- | --- | --- | --- | --- | --- |
| OCC1=C[C@H](N[C@H]2C[C@H](CO)[C@@H](O[C@@H]3O[C@H](CO)[C@@H](O)[C@H](O)[C@H]3O)[C@H](O)[C@H]2O)[C@H](O)[C@@H](O)[C@@H]1O [VALIDAMYCIN] | 17 | 45.2 | 34 | 5.7 | 22.6 |  |
| CC(C)=C[C@H]1C[C@H](C)[C@]2(CC[C@]3(C)C[C@H]4[C@H](C(=O)C[C@@]4(C)O)/C(C=O)=C\C[C@H]32)O1 [OPHIOBOLIN A] | 100 |  |  | 85.9 | 100 | 70.2 |
